Converted amounts (≈) assume the structure as drawn.

The test system of one data set is Leishmania mexicana. Briefly: Antileishmanial activity against Leishmania mexicana amastigotes assessed as effective dose. The note with it: read-out: ED50 (the source's name).
Data set [1] is described as follows: Anticancer activity against human KBV cells xenografted in nude mouse assessed as reduction in tumor weight at 10 mg/kg relative to control. In kind it is functional. More on the design: scale not given: the % may be the effect or the level left. (A xenograft is tissue or cells of one species grown in another, often human tumour cells in immunodeficient mice.)

A short description of data set [2]: Anticancer activity against human KBV cells assessed as cell survival rate in presence of paclitaxel.
Data set [3] relates to RAW264.7. Briefly: Antiinflammatory activity in mouse RAW264.7 cells assessed as inhibition of LPS/IFNgamma-induced nitric oxide production. Format: functional.
Data set [4] has as its system A549. Briefly: Cytotoxicity against human A549 cells assessed as reduction in cell viability measured after 72 hrs by MTT assay. In kind it is functional, cell-based. The note with it: A549, 72 h.
In the next data set the test system is A-431. In words: Cytotoxicity against human A-431 cells assessed as reduction in cell viability measured after 72 hrs by MTT assay. In kind it is functional, cell-based. The note with it: A-431, 72 h. (Tetrazolium assays rely on reduction of a dye to a coloured formazan, in cell work by metabolically active cells.)
The next data set has as its system HL-60. Briefly: Cytotoxicity against human HL-60 cells assessed as reduction in cell viability measured after 72 hrs by MTT assay. In kind it is functional, cell-based. The note with it: HL-60, 72 h.
Another data set relates to MCF7. Briefly: Cytotoxicity against human MCF7 cells assessed as reduction in cell viability measured after 72 hrs by MTT assay. Conditions: MCF7, 72 h. Format: functional, cell-based.
The subject of another data set is T47D. In words: Cytotoxicity against human T47D cells assessed as reduction in cell viability measured after 72 hrs by MTT assay. Format: functional, cell-based.
For another data set, the system named is HT-1080. In words: Cytotoxicity against human HT-1080 cells assessed as reduction in cell viability measured after 72 hrs by MTT assay. Format: functional, cell-based. Conditions: HT-1080, 72 h.
Data set [5] concerns A549. In words: Cytotoxicity against human A549 cells assessed as reduction in cell viability measured after 24 hrs by MTT assay. Format: functional, cell-based. The note with it: A549, 24 h.
The test system of data set [6] is RAW264.7. In words: Anti-inflammatory activity against mouse RAW264.7 cells assessed as inhibition of LPS-induced NO production. Format: functional, cell-based.
For the next data set, the system named is HepG2. Briefly: Antiproliferative activity against human HepG2 cells assessed as reduction in cell viability after 48 hrs by MTT assay. Format: functional, cell-based. The note with it: HepG2, 48 h.
The nature of data set [7]: Cytotoxicity against mouse L929 cells assessed as reduction in cell viability. In kind it is toxicity, cell-based.
The test system of data set [8] is A549. In words: Antitumor activity against human A549 cells assessed as cell growth inhibition.
For data set [9], the system named is A549. In words: Cytotoxicity against human A549 cells assessed as reduction in cell growth incubated for 48 hrs by Alamar blue assay. The note with it: A549, 48 h. Format: functional, cell-based. On the technique in general: Resazurin is reduced to fluorescent resorufin, in cell work by metabolically active cells.
A further data set concerns BT-20. Briefly: Cytotoxicity against human BT-20 cells assessed as reduction in cell viability incubated for 48 hrs by Alamar blue assay. In kind it is functional, cell-based. The note with it: BT-20, 48 h.
Data set [10] relates to LoVo. In words: Antiproliferative activity against human LoVo cells assessed as reduction in cell viability incubated for 24 hrs by MTT assay. Format: functional, cell-based.
Data set [11] has as its system LoVo. In words: Antiproliferative activity against human LoVo cells assessed as reduction in cell viability incubated for 48 hrs by MTT assay. Format: functional, cell-based.
Another data set relates to HeLa. In words: Antiproliferative activity against human HeLa cells assessed as reduction in cell viability measured after 72 hrs by MTT assay. In kind it is functional, cell-based.
Data set [12] deals with A549. In words: Inhibition of colony formation in human A549 cells measured after 24 to 48 hrs by crystal violet staining based analysis. Format: functional. Conditions: time 24-48 hrs.
Another data set has as its system NCI-H1299. In words: Inhibition of colony formation in human NCI-H1299 cells assessed as reduction in number of colonies measured after 24 to 48 hrs by crystal violet staining based assay. In kind it is functional. The note with it: time 24-48 hrs.
The subject of another data set is Staphylococcus aureus. In words: Antibacterial activity against Staphylococcus aureus KCTC 503 assessed as reduction in bacterial growth. In kind it is functional.
A further data set relates to Enterococcus faecalis. In words: Antibacterial activity against Enterococcus faecalis assessed as reduction in bacterial cell growth. Format: functional.
The test system of the next data set is Streptococcus mutans. Briefly: Antibacterial activity against Streptococcus mutans ATCC 25175 assessed as reduction in microbial growth after 24 hrs by agar well diffusion assay. Format: functional.
For a further data set, the system named is Toxoplasma gondii. Briefly: Antiparasitic activity against Toxoplasma gondii infected in human HeLa cells assessed as inhibition of cell growth relative to control. Format: functional.
A short description of data set [13]: Tmax in rat plasma. Format: ADME, cell-free.
Data set [14] in a line: Half life in rat plasma. Format: ADME, cell-free.
Data set [15] can be described thus: Elimination rate constant in rat plasma. Format: ADME, cell-free.

On to `CC1(C)CC[C@]2(C(=O)O)CC[C@]3(C)C(=CC[C@@H]4[C@@]5(C)CC[C@H](O)[C@@](C)(C=O)[C@@H]5CC[C@]43C)[C@@H]2C1`, for which the EC50 with Leishmania mexicana is 9.6 µM.

Turning to `CC1(C)CC[C@]2(C(=O)OCc3ccccc3)CC[C@]3(C)C(=CC[C@@H]4[C@@]5(C)Cc6nccnc6[C@@](C)(CO)[C@@H]5CC[C@]43C)[C@@H]2C1`, the figures for the Activity in data set [1] and in data set [2] were 41.88% and 25.34%, respectively.

Take `CC1(C)CC[C@]2(NC(=O)N3CCC[C@H]3C(=O)O)CC[C@]3(C)C(=CC[C@@H]4[C@@]5(C)CC[C@@H]6OC(C)(C)OC[C@@]6(C)[C@@H]5CC[C@]43C)[C@@H]2C1`: the EC50 in the data set on Leishmania mexicana is 81.1 µM.

Regarding `CC(=O)OC[C@@]1(C)[C@@H]2CC[C@]3(C)[C@H](CC=C4[C@@H]5CC(C)(C)CC[C@]5(NC(=O)N5CCCC5)CC[C@]43C)[C@@]2(C)CC[C@@H]1O`, the EC50 in the data set on Leishmania mexicana came out at 10.4 µM.

For `CC1(C)CC[C@]2(C(=O)O)CC[C@]3(C)C(=CC[C@@H]4[C@@]5(C)CC[C@@H]6OC(C)(C)OC[C@@]6(C)[C@@H]5CC[C@]43C)[C@@H]2C1`, the EC50 in the data set on Leishmania mexicana was determined as 83.6 µM.

As to `CC(=O)OC[C@H](OC(C)=O)[C@H](OC(C)=O)[C@@H](OC(C)=O)[C@@H]1OC[C@@]2(C)[C@@H]3CC[C@]4(C)[C@H](CC=C5[C@@H]6CC(C)(C)CC[C@]6(C(=O)O)CC[C@]54C)[C@@]3(C)CC[C@@H]2O1`, the EC50 in the data set with Leishmania mexicana worked out at 7.2 µM.

`CC1(C)CC[C@]2(N=C=O)CC[C@]3(C)C(=CC[C@@H]4[C@@]5(C)CC[C@@H]6OC(C)(C)OC[C@@]6(C)[C@@H]5CC[C@]43C)[C@@H]2C1`: the EC50 in the data set with Leishmania mexicana worked out at 0.9 µM.

For the compound `CC1(C)CC[C@]2(C(=O)OCc3ccccc3)CC[C@]3(C)C(=CC[C@@H]4[C@@]5(C)CC[C@@H]6O[C@H]([C@H]7O[C@H](O)[C@H](O)[C@@H](O)[C@@H]7O)OC[C@@]6(C)[C@@H]5CC[C@]43C)[C@@H]2C1`, in the data set on Leishmania mexicana, the EC50 worked out at 6 µM.

As to `CC1(C)CC[C@]2(C(=O)OCc3ccccc3)CC[C@]3(C)C(=CC[C@@H]4[C@@]5(C)CC[C@@H]6O[C@H]([C@H](OCc7ccccc7)[C@@H](OCc7ccccc7)[C@H](COCc7ccccc7)OCc7ccccc7)OC[C@@]6(C)[C@@H]5CC[C@]43C)[C@@H]2C1`, the EC50 in the data set with Leishmania mexicana came out at 4.5 µM.

For the compound `C[C@H](O)[C@H]1OC(CC2OC[C@@]3(C)[C@@H]4CC[C@]5(C)[C@H](CC=C6[C@@H]7CC(C)(C)CC[C@]7(C(=O)O)CC[C@]65C)[C@@]4(C)CC[C@@H]3O2)[C@@H](O)[C@@H]1O` (some centres undefined), the EC50 in the data set with Leishmania mexicana came to 10.3 µM.

Consider `CC1(C)CC[C@]2(C(=O)O)CC[C@]3(C)C(=CC[C@@H]4[C@@]5(C)CC[C@@H]6O[C@H](c7ccccc7)OC[C@@]6(C)[C@@H]5CC[C@]43C)[C@@H]2C1`, for which the EC50 in the data set with Leishmania mexicana stood at 10 µM.

With `COC(=O)[C@]12CCC(C)(C)C[C@H]1C1=CC[C@@H]3[C@@]4(C)C=C(C#N)C(=O)[C@@](C)(CO)[C@@H]4CC[C@@]3(C)[C@]1(C)CC2`, in the data set with RAW264.7 [3], the Activity worked out at 1.6 µM. The EC50 worked out at 7.94 µM in the data set on A549 [4]; 1.7 µM in the data set with A-431; 0.548 µM in the data set with HL-60; 2.25 µM in the data set on MCF7; 3.91 µM in the data set with T47D; 3.03 µM with HT-1080.

As usually defined, the IC50 is the concentration that gives 50% inhibition. On to `Cc1cncc(C(=O)OCCOC(=O)[C@]23CCC(C)(C)C[C@H]2C2=CC[C@@H]4[C@@]5(C)CC[C@H](O)[C@@](C)(CO)[C@@H]5CC[C@@]4(C)[C@]2(C)CC3)n1`, for which the IC50 in the data set with A549 [5] came out at 3.45 µM.

Turning to `COC(=O)[C@]12CCC(C)(C)C[C@H]1C1=CC[C@@H]3[C@@]4(C)CC[C@@H]5O[C@H](c6ccccc6)OC[C@@]5(C)[C@@H]4CC[C@@]3(C)[C@]1(C)CC2`, the EC50 in the data set with Leishmania mexicana stood at 2.9 µM.

Take `CC1(C)CC[C@]2(NC(=O)N3CCCC3)CC[C@]3(C)C(=CC[C@@H]4[C@@]5(C)CC[C@@H]6OC(C)(C)OC[C@@]6(C)[C@@H]5CC[C@]43C)[C@@H]2C1`: the EC50 with Leishmania mexicana is 92 µM.

`C[C@]12CC[C@H](O)[C@@](C)(CO)[C@@H]1CC[C@]1(C)[C@@H]2CC=C2[C@@H]3C[C@](C)(C(=O)O)[C@@H](O)C[C@]3(C(=O)O)CC[C@]21C`: the IC50 with RAW264.7 [6] was determined as 0.078 µM.

With `COC(=O)[C@]12CCC(C)(C)C[C@H]1C1/C(=N/O)C[C@@H]3[C@@]4(C)CC[C@H](OC(C)=O)[C@@](C)(COC(C)=O)[C@@H]4CC[C@@]3(C)[C@]1(C)CC2` (some centres undefined), the figures for the IC50 (with HepG2; in data set [7]) were 1.88 µM and 21.2 µM, respectively.

Regarding `O=c1[nH]cc(F)c(=O)[nH]1` [FLUOROURACIL], the IC50 in the data set on HepG2 turned out to be 16.4 µM.

With `C[C@@H]1O[C@@H](O[C@H]2[C@H](O[C@H]3CC[C@@]4(C)[C@@H](CC[C@]5(C)[C@@H]4CC=C4[C@@H]6CC(C)(C)CC[C@]6(C(=O)O)CC[C@]45C)[C@]3(C)CO)OC[C@H](O[C@@H]3O[C@H](CO)[C@@H](O)[C@H](O)[C@H]3O)[C@@H]2O)[C@H](O)[C@H](O)[C@H]1O` [HEDERACOLCHISIDE A], the IC50 with A549 [8] came to 5.8 µM.

A word on the MIC: it is the least concentration at which growth counts as inhibited. For orientation: Tmax means the time from dosing to the highest level. A word on the half-life: it is how long it takes for the measured level to halve. `CC1(C)CC[C@]2(C(=O)O)CC[C@]3(C)C(=CC[C@@H]4[C@@]5(C)CC[C@H](O)[C@@](C)(CO)[C@@H]5CC[C@]43C)[C@@H]2C1` [HEDERAGENIN]: the IC50 in the data set on A549 [9] is 26.2 µM; in the data set with BT-20 it was 11.8 µM; in the data set on LoVo [10], 1.39 µM; in the data set on LoVo [11] it was 1.17 µM; in the data set on HeLa, 17.4 µg/mL (≈ 36.9 µM); in the data set with A549 [5], above 50 µM. In addition, in the data set on HepG2, the IC50 amounted to 35.9 µM. Also, the INH in the data set on A549 [12] worked out at 10 µM; with NCI-H1299 it was 20 µM. The MIC is 16 µg/mL (≈ 33.8 µM) in the data set on Staphylococcus aureus, 128 µg/mL (≈ 271 µM) in the data set on Enterococcus faecalis and 9.7 µg/mL in the data set with Streptococcus mutans. Also, the “inhibition (INH)” value in the data set with Toxoplasma gondii was found to be 64.8%. For the same compound, in data set [13], the Tmax is 18.3 min. This compound also came in with a half-life in data set [14] of 44.1 min. Moreover, the Kel in data set [15] was determined as 0.96 h⁻¹. The Activity in data set [2] worked out at 149.47%.
